What is called EC50 is the concentration needed to bring the measured effect to its halfway point. In general, IC50 refers to the midpoint of a concentration-inhibition curve.

We go through 5 molecules from patent US10703752B2, “Integrin antagonists” (OXURION NV, priority 2018, dated 2020).

Where a name gives a salt, the structure may show the parent alone.

The target in one assay is platelet integrin αIIbβ3 (Homo sapiens, UniProt P05106+P08514). The assay can be described thus: Competition ELISA, integrin antagonism (fibronectin ligand). The following applies: fibronectin binding to coated receptor. Here is the method: (§1) Suitable methods for determining EC50 values are known to the skilled person. One particular method to determine the value for a particular compound is a competition ELISA assay wherein the integrin receptor under investigation (in particular human αvβ3 integrin receptor) is coated to a multi-well plate using a 4 μg/mL solution and the wells are blocked with 5% bovine serum albumin. The fibronectin concentration to be used in the assay is determined experimentally in a separate experiment by testing the binding of various fibronectin concentrations to the coated integrin under investigation, the concentration of fibronectin for the assay being the one that gives 80% of maximal binding. The determined concentration of human fibronectin is then added to the coated and blocked wells in the presence of increasing concentrations of the compound. After 2 h incubation at 37° C., the wells are washed and the bound fibronectin is detected with the help of a specific reagent, such as a detectable anti-fibronectin antibody. Quantitative analysis of the data is then performed to determine EC50 values, i.e. the concentration of the compound that reduces fibronectin binding to the coated receptor by 50%.
(§2) The principle of the competition ELISA assays used here was as follows: (1) the integrin receptor under investigation was coated to 96-well plates and the wells were blocked, (2) an integrin ligand (fibronectin) was then added to the relevant wells in the presence of increasing concentrations of a given integrin antagonist, (3) after a defined amount of time, the wells were washed and the bound ligand was detected with the help of a specific reagent. Quantitative analysis of the data was then performed to determine EC50 values, i.e. the concentration of the integrin antagonist that reduces ligand binding to the coated receptor by 50%.
On the technique in general: An ELISA detects its analyte on a solid surface through an enzyme-linked reagent.

Another assay addresses α5β1 integrin receptor (Homo sapiens, UniProt P05556+P08648). The description is as above. The following applies: fibronectin binding to coated receptor. Here is the method:
as §1, §2

Another assay concerns the target αvβ5 integrin receptor (Homo sapiens, UniProt P06756+P18084). The description is as above. The following applies: fibronectin binding to coated receptor, read-out: EC50 ανβ5. Here is the method:
as §1, §2

A further assay concerns the target αvβ3 integrin receptor (Homo sapiens, UniProt P05106+P06756). The description is as above. The note with it: fibronectin binding to coated receptor, read-out: EC50 ανβ3. On the procedure:
as §1, §2

For assay [1], the system named is human umbilical vein endothelial cells (HUVECs). The assay can be described thus: ORIS Cell Migration Assay. In kind it is cell-based. The note with it: HUVEC, fibronectin-coated plates, 24 h migration. Here is the method: Endothelial cell wound healing is mediated by endothelial cell migration and proliferation, both critical components of the angiogenesis process, and is routinely used as a surrogate model for in vitro angiogenic potential. The ORIS™ Cell Migration Assay was used with human umbilical vein endothelial cells (HUVECs).
HUVEC cells (SCCE-001, Cat no 1000519, Merck Chemicals) were cultured in T175 flasks (Cat no 353112, falcon) in EndoGro Growth Medium (SCME-003, Merck Chemicals) and split when they reached 90-100% confluence.
For the assay, cells were used at passage 2 to 4 after thawing and at 80-90% confluency. At the beginning of the day, the fibronectin-coated Oris™ Cell Migration Assay Plates (Cat no # CMAFN.101, AMS Biotechnology) were removed from refrigeration and placed at RT for 1 h. The Oris Detection Masks were washed with ethanol and applied to the bottom of the 96-well plates, aligning the Al corner of the masks with the Al corner of the plates. Cells were harvested by trypsinization (Cat no 25300, Gibco), centrifuged at 250 g for 5 mm and suspended at 0.4·10^6 per mL in complete EndoGro growth medium. 100 μL of the cell suspension were added to the wells and the plates were incubated for 6 h at 37° C. and 5% C02 to allow cells to adhere.
At the end of the incubation, the stopper tool was washed with ethanol and used to remove the stoppers from all the wells except the reference wells. […]
Just prior to the end of the incubation, a 4 μg/mL calcein AM (Cat no 354217, Beckton Dickinson) solution was prepared in pre-warmed HBSS (Cat no 14025, Gibco). […] After incubation the fluorescence was read at 494 nm excitation and 517 nm emission wavelengths using the Flexstation and the SofiMax Pro 5.4.5 software (Molecular Devices). The fluorescence was read from the bottom of the plates with the lid on to keep them sterile. The masks were then removed and pictures were taken with the Axiovert fluorescence microscope (Zeiss) using reflected light, GFP and a 2.5× objective.

Assay [2] has as its system RPE-choroid sclera explants. The assay is described as follows: Murine choroidal explant assay (vessel sprouting). The note with it: for IC50: Mus musculus, murine choroid explants in fibrin gel, 3 to 4 days, read-out: IC50 vessel outgrowth. The assay is classed as cell-based, C57BL/6J mice. The source says:
The assay is based on a murine microvascular angiogenesis explant model, which closely mimics in viva choroidal angiogenesis. The major advantage of this organotypical culture model is that cells are kept within their normal environment, thereby preserving cell-cell interactions, while maintaining a higher level of experimental control than in animal models. The choroidal explant model or briefly EMCA model allows for rapid evaluation of new anti-angiogenic therapeutics, with the additional benefit of excluding the potential lack of exposure often encountered when testing small molecules in animal eyes. RPE-choroid sclera explants (hereinafter referred to as choroid explants) are embedded in a three-dimensional fibrinogen/fibrin gel. Addition of serum-containing medium induces extensive endothelial cell sprout outgrowth into the matrix after 3 to 4 days in culture.
All experiments were performed using 4 to 5-weeks old male C57BL/6J mice (Charles River Laboratories France), housed under standard laboratory conditions according to a normal day/night rhythm with ad libitum access to food and water. All animal experiments were approved by the Institutional Ethical Committee of KU Leuven.
After initial optimization, a general protocol was set-up. Briefly, after euthanasia of the mice using pentobarbital (200 mg/kg, IP, Dolethal, Vetoquinol) followed by cervical dislocation, eyes were immediately enucleated with curved forceps and kept in ice-cold DPBS (cat no 14190-136, Gihco). Under a stereomicroscope, the eye was placed in a drop of ice-cold DPBS, and held in place with forceps on an ice-cold petri dish. The cornea and lens were removed via a circumferential incision at the limbus (cornea-sclera boundary) using Vannas spring scissors (Fine Science Tools). Next, redundant muscles were removed from the remaining eyeball and a cut was made from the edge of the posterior chamber towards the optic nerve head. […]

As for `COC(=O)CCOC(=O)N[C@@H](CNc1nc(C)nc(N2CCC(c3ccc4c(n3)NCCC4)CC2)c1C)C(=O)O` [cpdA, (2S)-3-({2,5-dimethyl-6-[4-(5,6,7,8-tetrahydro-1,8-naphthyridin-2-yl)piperidin-1-yl]pyrimidin-4-yl}amino)-2-{[(3-methoxy-3-oxopropoxy)carbonyl]amino}propanoic acid trifluoro acetate, reference compound], the 50% effective concentration (EC50) on platelet integrin αIIbβ3, on α5β1 integrin receptor, at αvβ5 integrin receptor and at αvβ3 integrin receptor was 0.001 to 0.01 µM in each case.

With `Cc1nc(NC[C@H](NC(=O)OCC(=O)O)C(=O)O)c(C)c(N2CCC(c3ccc4c(n3)NCCC4)CC2)n1` [cpd2, (2S)-2-([(carboxymethoxy)carbonyl]amino)-3-({2,5-dimethyl-6-[4-(5,6,7,8-tetrahydro-1,8-naphthyridin-2-yl)piperidin-1-yl]pyrimidin-4-yl}amino)propanoic acid dihydrochloride], the IC50 in assay [1] was below 1 µM. The half-maximal effective concentration (EC50) on platelet integrin αIIbβ3 was above 0.025 µM; at α5β1 integrin receptor, 0.001 to 0.01 µM; on αvβ5 integrin receptor, 0.001 to 0.01 µM; at αvβ3 integrin receptor, 0.001 to 0.01 µM.

For `Cc1nc(NC[C@H](NC(=O)OCCC(=O)O)C(=O)O)c(C)c(N2CCC(c3ccc4c(n3)NCCC4)CC2)n1` [cpd1, (2S)-2-{[(2-carboxyethoxy)carbonyl]amino}-3-({2,5-dimethyl-6-[4-(5,6,7,8-tetrahydro-1,8-naphthyridin-2-yl)piperidin-1-yl]pyrimidin-4-yl}amino)propanoic acid], the EC50 at platelet integrin αIIbβ3 was above 0.025 µM; at α5β1 integrin receptor, 0.001 to 0.01 µM; on αvβ5 integrin receptor, 0.001 to 0.01 µM; at αvβ3 integrin receptor, 0.001 to 0.01 µM.

On to `Cc1nc(NC[C@H](NC(=O)OCc2ccccc2)C(=O)O)c(C)c(N2CCC(c3ccc4c(n3)NCCC4)CC2)n1` [cpdB, reference compound], for which the IC50 in assay [2] was around 1 µM; in assay [1] it was below 1 µM. For the same molecule, the EC50 on platelet integrin αIIbβ3 lay in the range of 0.001 to 0.01 µM; at α5β1 integrin receptor, 0.001 to 0.01 µM; at αvβ5 integrin receptor, 0.001 to 0.01 µM; at αvβ3 integrin receptor, 0.01 to 0.025 µM.

In the case of `Cc1nc(NC[C@H](NC(=O)OC(C)C(=O)O)C(=O)O)c(C)c(N2CCC(c3ccc4c(n3)NCCC4)CC2)n1` (stereo partly drawn) [cpd3, (2S)-2-{[(1-carboxyethoxy)carbonyl]amino}-3-({2,5-dimethyl-6-[4-(5,6,7,8-tetrahydro-1,8-naphthyridin-2-yl)piperidin-1-yl]pyrimidin-4-yl}amino)propanoic acid, dihydrochloride], the IC50 is around 1 µM in assay [2] and below 1 µM in assay [1]. Also, the “endothelial sprout formation, in words” value in assay [2] (murine choroid explants) is “inhibition of vessel sprouting”. Moreover, the concentration giving a half-maximal response (EC50) was above 0.025 µM at platelet integrin αIIbβ3, 0.001 to 0.01 µM on α5β1 integrin receptor, 0.001 to 0.01 µM on αvβ5 integrin receptor and 0.001 to 0.01 µM on αvβ3 integrin receptor.
